Measurements published in US20130066055A1, “NEW BINDER-DRUG CONJUGATES (ADCS) AND USE THEREOF” (Bayer Intellectual Property GmbH, priority 2011, published 2013).
“And” between values parts separate entries of the source, which are not always exact repeats. Equal entries are not always repeated. Structures can show the parent of a compound that is named as a salt. Square brackets hold non-standard residues; d marks the D form. Peptide text beside a SMILES is read from it. * marks the point of attachment. X2 = CC(C)[C@@H](C(=O)*)N(C)CCCCCCN1C(=O)CC(SC[C@H](N)C(=O)O)C1=O; X3 = CC(C)[C@@H](C(=O)*)N(C)CCOCCOCCOCCC(=O)NCCCC[C@H](N)C(=O)O; X4 = C[C@@H](O)[C@@H](C(=O)*)N(C)CCCCCC(=O)NCCCC[C@H](N)C(=O)O; X1 = CC(C)[C@@H](C(=O)*)N(C)CCCCCC(=O)NCCCC[C@H](N)C(=O)O; Dolaproine = CO[C@@H]([C@@H]1CCCN1)[C@@H](C)C(=O)O; Dil = CC[C@H](C)[C@H](NC)[C@@H](CC(=O)O)OC; Oxazinan2yl(1,2) = C1CCN(*)OC1

Tests used:
[1] = Caco-2 flux assay for cell permeability; format: in vitro ADME; conditions: human, Caco-2 cells, basal to apical
Protocol: The cell permeability of a substance can be investigated by means of in vitro testing in a flux assay using Caco-2 cells [M. D. Troutman and D. R. Thakker, Pharm. Res. 20 (8), 1210-1224 (2003)]. For this purpose, the cells were cultured for 15-16 days on 24-well filter plates. For the determination of permeation, the respective working example was applied in a HEPES buffer to the cells either apically (A) or basally (B) and incubated for 2 hours. After 0 hours and after 2 hours, samples were taken from the cis and trans compartments. The samples were separated by HPLC (Agilent 1200, Böblingen, Germany) using reverse phase columns. The HPLC system was coupled via a Turbo Ion Spray Interface to a Triple Quadropol mass spectrometer API 4000 (Applied Biosystems Applera, Darmstadt, Germany). The permeability was evaluated on the basis of a Papp value, which was calculated using the formula published by Schwab et al. [D. Schwab et al., J. Med. Chem. 46, 1716-1725 (2003)].

tubulin = experiment: Fluorescence-based microtubule (tubulin) polymerization assay; format: biochemical
Protocol: Tubulin polymerization was investigated using the “Fluorescence-based Microtubule Polymerisation Assay Kit” from Cytoskeleton (Denver, Colo., USA; order number: BK011). With this assay, GTP is added to unpolymerized tubulin, allowing polymerization to take place spontaneously. The assay is based on the binding of the fluorophore 4′,6-di-amidino-2-phenylindole (DAPI) to tubulin. Free and bound DAPI can be differentiated on the basis of different emission spectra.
[…] In addition to the buffer control, paclitaxel, with a polymerization-increasing effect, and vinblastin, with a polymerization inhibiting effect, were run additionally as assay controls. Measurement was carried out using 96-well plates with a half base area. The kinetics of the tubulin polymerization were monitored in a Fluorimeter at 37° C. for 1 hour. The excitation wavelength was 355 nm, and emission was monitored at 460 nm. For the region of linear increase within the first 10 minutes, a calculation was made of the change in fluorescence per minute (ΔF/min), which represents the polymerization rate of the microtubuli. The potency of the test substances was quantified on the basis of their respective reduction of the polymerization rate.

[2] = molecular target: T1, P-glycoprotein (P-gp, ABCB1) (Homo sapiens, UniProt P08183); experiment: Flux assay in P-gp overexpressing L-MDR1 cells; format: in vitro ADME; conditions: LLC-PK1, basal to apical
T1 construct: expressed in transfected cells; host or cells: LLC-PK1 (pig kidney) cells transfected with human MDR1 (L-MDR1 cells)
T1 sequence (P08183 whole entry): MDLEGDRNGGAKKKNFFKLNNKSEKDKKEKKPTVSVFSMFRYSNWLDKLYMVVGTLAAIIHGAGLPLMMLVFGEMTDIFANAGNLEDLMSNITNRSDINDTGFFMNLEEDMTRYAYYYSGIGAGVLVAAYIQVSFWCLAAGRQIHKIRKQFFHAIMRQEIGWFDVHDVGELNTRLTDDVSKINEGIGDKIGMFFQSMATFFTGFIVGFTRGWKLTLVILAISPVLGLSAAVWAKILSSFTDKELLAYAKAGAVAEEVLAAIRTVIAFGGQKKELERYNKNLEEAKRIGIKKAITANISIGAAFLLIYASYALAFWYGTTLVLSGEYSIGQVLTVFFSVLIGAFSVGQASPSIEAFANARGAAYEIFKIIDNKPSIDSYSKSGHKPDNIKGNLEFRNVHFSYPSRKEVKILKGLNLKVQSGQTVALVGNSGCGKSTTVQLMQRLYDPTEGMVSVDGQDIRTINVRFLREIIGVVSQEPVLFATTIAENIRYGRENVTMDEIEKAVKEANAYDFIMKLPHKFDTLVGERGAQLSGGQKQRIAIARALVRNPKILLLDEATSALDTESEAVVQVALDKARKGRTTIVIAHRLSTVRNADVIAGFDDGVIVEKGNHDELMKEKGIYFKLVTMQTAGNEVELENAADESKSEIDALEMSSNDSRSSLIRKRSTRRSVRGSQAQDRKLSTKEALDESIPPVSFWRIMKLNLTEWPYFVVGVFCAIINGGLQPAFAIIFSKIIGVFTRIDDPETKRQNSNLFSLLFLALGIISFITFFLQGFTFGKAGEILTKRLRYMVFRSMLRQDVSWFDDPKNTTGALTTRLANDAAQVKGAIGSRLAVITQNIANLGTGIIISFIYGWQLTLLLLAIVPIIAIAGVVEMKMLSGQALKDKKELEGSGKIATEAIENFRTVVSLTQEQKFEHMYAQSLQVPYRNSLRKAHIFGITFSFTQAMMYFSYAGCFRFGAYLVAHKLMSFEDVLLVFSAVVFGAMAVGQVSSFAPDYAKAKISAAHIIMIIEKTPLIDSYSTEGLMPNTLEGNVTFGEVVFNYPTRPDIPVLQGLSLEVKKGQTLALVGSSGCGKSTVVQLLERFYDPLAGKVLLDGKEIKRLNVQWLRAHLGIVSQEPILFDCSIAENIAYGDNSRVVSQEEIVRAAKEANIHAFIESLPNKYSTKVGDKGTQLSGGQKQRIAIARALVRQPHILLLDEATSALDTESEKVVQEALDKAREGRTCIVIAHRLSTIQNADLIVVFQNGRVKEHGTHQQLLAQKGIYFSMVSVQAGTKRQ
Protocol: The substrate properties of a substance for P-gp (ABCB1) were determined by means of a flux assay using LLC-PK1 cells which overexpress P-gp (L-MDR1 cells) [A. H. Schinkel et al., J. Clin. Invest. 96, 1698-1705 (1995)]. For this purpose, the LLC-PK1 cells or L-MDR1 cells were cultured on 96-well filter plates for 3-4 days. For determination of the permeation, the respective test substance, alone or in the presence of an inhibitor (such as Ivermectin or Verapamil, for example), was applied in a HEPES buffer to the cells either apically (A) or basally (B) and incubated for 2 hours. After 0 hours and after 2 hours, samples were taken from the cis and trans compartments. The samples were separated by HPLC using reverse phase columns. The HPLC system was coupled via a Turbo Ion Spray Interface to a Triple Quadropol mass spectrometer API 3000 (Applied Biosystems Applera, Darmstadt, Germany). The permeability was evaluated on the basis of a Papp value which was calculated using the formula published by Schwab et al. [D. Schwab et al., J. Med. Chem. 46, 1716-1725 (2003)].

CC[C@H](C)[C@@H]([C@@H](CC(=O)N1CCC[C@H]1[C@H](OC)[C@@H](C)C(=O)N[C@@H](Cc1c[nH]c2ccccc12)C(N)=O)OC)N(C)C(=O)[C@@H](NC(=O)[C@H](C(C)C)N(C)CCCC(=O)NNC(=O)CCCCCN1C(=O)CC(SC[C@H](N)C(=O)O)C1=O)C(C)C (stereo partly drawn) [Example 71, N-(4-{2-[6-(3-{[(2R)-2-Amino-2-carboxyethyl]sulphanyl}-2,5-dioxopyrrolidin-1-yl)hexanoyl]hydrazino}-4-oxobutyl)-N-methyl-L-valyl-N-[(3R,4S,5S)-1-{(2S)-2-[(1R,2R)-3-{[(2S)-1-amino-3-(1H-indol-3-yl)-1-oxopropan-2-yl]amino}-1-methoxy-2-methyl-3-oxopropyl]pyrrolidin-1-yl}-3-methoxy-5-methyl-1-oxoheptan-4-yl]-N-methyl-L-valinamide]
Papp B→A at 2 h [1]: 0.2 ×10⁻⁶ cm/s | Tubulin polymerization in the presence of toxophore in [%]. Tubulin polymerization rate at 1 μM MMAF set at 100% (tubulin; toxophore 1 μM): 88% | Tubulin polymerization in the presence of toxophore in [%]. Tubulin polymerization rate at 1 μM MMAF set at 100% (tubulin; toxophore 10 μM): 25% | Papp B→A at 2 h [2]: 0.3 ×10⁻⁶ cm/s

CC[C@H](C)[C@@H]([C@@H](CC(=O)N1CCC[C@H]1[C@H](OC)[C@@H](C)C(=O)N[C@@H](Cc1c[nH]c2ccccc12)C(=O)O)OC)N(C)C(=O)[C@@H](NC(=O)[C@H](C(C)C)N(C)CCCC(=O)NNC(=O)CCCCCN1C(=O)CC(SC[C@H](N)C(=O)O)C1=O)C(C)C (stereo partly drawn) [Example 72, N-(4-{2-[6-(3-{[(2R)-2-Amino-2-carboxyethyl]sulphanyl}-2,5-dioxopyrrolidin-1-yl)hexanoyl]hydrazino}-4-oxobutyl)-N-methyl-L-valyl-N-[(3R,4S,5S)-1-{(2S)-2-[(1R,2R)-3-{[(1S)-1-carboxy-2-(1H-indol-3-yl)ethyl]amino}-1-methoxy-2-methyl-3-oxopropyl]pyrrolidin-1-yl}-3-methoxy-5-methyl-1-oxoheptan-4-yl]-N-methyl-L-valinamide]
Papp B→A at 2 h [1]: 0.16 ×10⁻⁶ cm/s | Tubulin polymerization in the presence of toxophore in [%]. Tubulin polymerization rate at 1 μM MMAF set at 100% (tubulin; toxophore 1 μM): 109% | Tubulin polymerization in the presence of toxophore in [%]. Tubulin polymerization rate at 1 μM MMAF set at 100% (tubulin; toxophore 10 μM): 27% | Papp B→A at 2 h [2]: 0.36 ×10⁻⁶ cm/s

CC[C@H](C)[C@@H]([C@@H](CC(=O)N1CCC[C@H]1[C@H](OC)[C@@H](C)C(=O)N[C@@]1(C(=O)N2CCCCO2)C[C@@H]1c1ccccc1)OC)N(C)C(=O)[C@@H](NC(=O)[C@H](C(C)C)N(C)CCCC(=O)NNC(=O)CCCCCN1C(=O)CC(SC[C@H](N)C(=O)O)C1=O)C(C)C (stereo partly drawn) [Example 73, N-(4-{2-[6-(3-{[(2R)-2-Amino-2-carboxyethyl]sulphanyl}-2,5-dioxopyrrolidin-1-yl)hexanoyl]hydrazino}-4-oxobutyl)-N-methyl-L-valyl-N-[(3R,4S,5S)-3-methoxy-1-{(2S)-2-[(1R,2R)-1-methoxy-2-methyl-3-{[(1S,2R)-1-(1,2-oxazinan-2-ylcarbonyl)-2-phenylcyclopropyl]amino}-3-oxopropyl]pyrrolidin-1-yl}-5-methyl-1-oxoheptan-4-yl]-N-methyl-L-valinamide]
Papp B→A at 2 h [1]: 0.25 ×10⁻⁶ cm/s | Tubulin polymerization in the presence of toxophore in [%]. Tubulin polymerization rate at 1 μM MMAF set at 100% (tubulin; toxophore 1 μM): 120% | Papp B→A at 2 h [2]: 0.21 ×10⁻⁶ cm/s

CC[C@H](C)[C@@H]([C@@H](CC(=O)N1CCC[C@H]1[C@H](OC)[C@@H](C)C(=O)N[C@@H](Cc1c[nH]c2ccccc12)C(=O)N1CCCCO1)OC)N(C)C(=O)[C@@H](NC(=O)[C@H](C(C)C)N(C)CCCCCCN1C(=O)CC(SC[C@H](N)C(=O)O)C1=O)C(C)C (stereo partly drawn) [Example 76, N-[6-(3-{[(2R)-2-Amino-2-carboxyethyl]sulphanyl}-2,5-dioxopyrrolidin-1-yl)hexyl]-N-methyl-L-valyl-N-[(3R,4S,5S)-1-{(2S)-2-[(1R,2R)-3-{[(2S)-3-(1H-indol-3-yl)-1-(1,2-oxazinan-2-yl)-1-oxopropan-2-yl]amino}-1-methoxy-2-methyl-3-oxopropyl]pyrrolidin-1-yl}-3-methoxy-5-methyl-1-oxoheptan-4-yl]-N-methyl-L-valinamide] (X2-V[Dil][Dolaproine]W-{Oxazinan2yl(1,2)})
Tubulin polymerization in the presence of toxophore in [%]. Tubulin polymerization rate at 1 μM MMAF set at 100% (tubulin; toxophore 1 μM): 121% | Tubulin polymerization in the presence of toxophore in [%]. Tubulin polymerization rate at 1 μM MMAF set at 100% (tubulin; toxophore 10 μM): 35%

CC[C@H](C)[C@@H]([C@@H](CC(=O)N1CCC[C@H]1[C@H](OC)[C@@H](C)C(=O)N[C@@H](Cc1ccccc1)C(=O)NCc1ccccc1)OC)N(C)C(=O)[C@@H](NC(=O)[C@H](C(C)C)N(C)CCCC(=O)NNC(=O)CCCCCN1C(=O)CC(SC[C@H](N)C(=O)O)C1=O)C(C)C (stereo partly drawn) [Example 78, N-(4-{2-[6-(3-{[(2R)-2-Amino-2-carboxyethyl]sulphanyl}-2,5-dioxopyrrolidin-1-yl)hexanoyl]hydrazino}-4-oxobutyl)-N-methyl-L-valyl-N-[(3R,4S,5S)-1-{(2S)-2-[(1R,2R)-3-{[(2S)-1-(benzylamino)-1-oxo-3-phenylpropan-2-yl]amino}-1-methoxy-2-methyl-3-oxopropyl]pyrrolidin-1-yl}-3-methoxy-5-methyl-1-oxoheptan-4-yl]-N-methyl-L-valinamide]
Tubulin polymerization in the presence of toxophore in [%]. Tubulin polymerization rate at 1 μM MMAF set at 100% (tubulin; toxophore 1 μM): 110%

CC[C@H](C)[C@@H]([C@@H](CC(=O)N1CCC[C@H]1[C@H](OC)[C@@H](C)C(=O)N[C@@H](Cc1c[nH]c2ccccc12)C(=O)N1CCCCO1)OC)N(C)C(=O)[C@@H](NC(=O)[C@H](C(C)C)N(C)CCOCCOCCOCCC(=O)NCCCC[C@H](N)C(=O)O)C(C)C [Example 117, N-[(18S)-[8-Amino-18-carboxy-12-oxo-3,6,9-trioxa-13-azaoctadec-1-yl]-N-methyl-L-valyl-N-[(3R,4S,5S)-1-{(2S)-2-[(1R,2R)-3-{[(2S)-3-(1H-indol-3-yl)-1-(1,2-oxazinan-2-yl)-1-oxopropan-2-yl]amino}-1-methoxy-2-methyl-3-oxopropyl]pyrrolidin-1-yl}-3-methoxy-5-methyl-1-oxoheptan-4-yl]-N-methyl-L-valinamide trifluoroacetate] (X3-V[Dil][Dolaproine]W-{Oxazinan2yl(1,2)})
Tubulin polymerization in the presence of toxophore in [%]. Tubulin polymerization rate at 1 μM MMAF set at 100% (tubulin; toxophore 1 μM): 60% and 78%

CC[C@H](C)[C@@H]([C@@H](CC(=O)N1CCC[C@H]1[C@H](OC)[C@@H](C)C(=O)N[C@@H](Cc1c[nH]c2ccccc12)C(=O)N1CCCCO1)OC)N(C)C(=O)[C@@H](NC(=O)[C@H]([C@@H](C)O)N(C)CCCCCC(=O)NCCCC[C@H](N)C(=O)O)C(C)C [Example 126, N-(6-{[(5S)-5-Amino-5-carboxypentyl]amino}-6-oxohexyl)-N-methyl-L-threonyl-N-[(3R,4S,5S)-1-{(2S)-2-[(1R,2R)-3-{[(2S)-3-(1H-indol-3-yl)-1-(1,2-oxazinan-2-yl)-1-oxopropan-2-yl]amino}-1-methoxy-2-methyl-3-oxopropyl]pyrrolidin-1-yl}-3-methoxy-5-methyl-1-oxoheptan-4-yl]-N-methyl-L-valinamide trifluoroacetate] (X4-V[Dil][Dolaproine]W-{Oxazinan2yl(1,2)})
Papp B→A at 2 h [1]: 0.18 ×10⁻⁶ cm/s

CC[C@H](C)[C@@H]([C@@H](CC(=O)N1CCC[C@H]1[C@H](OC)[C@@H](C)C(=O)N[C@@H](Cc1ccc(O)cc1)C(=O)N1CCCCO1)OC)N(C)C(=O)[C@@H](NC(=O)[C@H](C(C)C)N(C)CCCCCC(=O)NCCCC[C@H](N)C(=O)O)C(C)C [Example 127, N-(6-{[(5S)-5-Amino-5-carboxypentyl]amino}-6-oxohexyl)-N-methyl-L-valyl-N-[(3R,4S,5S)-1-{(2S)-2-[(1R,2R)-3-{[(2S)-3-(4-hydroxyphenyl)-1-(1,2-oxazinan-2-yl)-1-oxopropan-2-yl]amino}-1-methoxy-2-methyl-3-oxopropyl]pyrrolidin-1-yl}-3-methoxy-5-methyl-1-oxoheptan-4-yl]-N-methyl-L-valinamide trifluoroacetate] (X1-V[Dil][Dolaproine]Y-{Oxazinan2yl(1,2)})
Papp B→A at 2 h [1]: 0.15 ×10⁻⁶ cm/s
